Reference: paper PMC11378297, “Discovery and Profiling of New Multimodal Phenylglycinamide Derivatives as Potent Antiseizure and Antinociceptive Drug Candidates” (ACS Chemical Neuroscience, 2024)

Tests used:
[1] = test system: capsaicin-induced pain, mice; test: capsaicin-induced pain test; format: in vivo; details: Mus musculus, ip, 30 min before capsaicin
[2] = test system: 6 Hz (44 mA) seizures, mice; test: 6 Hz (44 mA) seizure test; format: in vivo; details: Mus musculus, ip, pretreatment time 0.5 h
Excerpt: Both the aforementioned parameters (ED50 and TD50) enabled the calculation of protective indexes (PIs), which reflect the comparative the benefit–risk ratio of these experimental therapeutic agents.
Four mice per group were randomly assigned to each experimental group in the initial screening experiments (each mouse was used just once). Four groups, each with eight animals, received injections of different doses of the investigated substances in order to determine the ED50 or TD50 values. The PIs for the compounds investigated and reference ASMs were calculated by dividing the TD50 value, as determined in the chimney test by the respective ED50 value, as determined in the MES, scPTZ, or 6 Hz (32 mA or 44 mA) tests (PI = TD50/ED50). The PIs are a measure of the potential therapeutic window of the tested agent.
All substances were suspended in Tween 80 (1% aqueous solution) and administered i.p. as a single injection at a volume of 10 mL/kg. On each day of experimentation, fresh solutions were prepared.

TRPM8 (h) = biological target: T1, TRPM8 (h) (Homo sapiens, UniProt Q7Z2W7); test: TRPM8 (h) (antagonist effect); format: cell-based; details: HEK293, human recombinant HEK-293 cell, read-out: % inhibition of control agonist response
T1 construct: Eurofins
T1 sequence (Q7Z2W7 whole entry): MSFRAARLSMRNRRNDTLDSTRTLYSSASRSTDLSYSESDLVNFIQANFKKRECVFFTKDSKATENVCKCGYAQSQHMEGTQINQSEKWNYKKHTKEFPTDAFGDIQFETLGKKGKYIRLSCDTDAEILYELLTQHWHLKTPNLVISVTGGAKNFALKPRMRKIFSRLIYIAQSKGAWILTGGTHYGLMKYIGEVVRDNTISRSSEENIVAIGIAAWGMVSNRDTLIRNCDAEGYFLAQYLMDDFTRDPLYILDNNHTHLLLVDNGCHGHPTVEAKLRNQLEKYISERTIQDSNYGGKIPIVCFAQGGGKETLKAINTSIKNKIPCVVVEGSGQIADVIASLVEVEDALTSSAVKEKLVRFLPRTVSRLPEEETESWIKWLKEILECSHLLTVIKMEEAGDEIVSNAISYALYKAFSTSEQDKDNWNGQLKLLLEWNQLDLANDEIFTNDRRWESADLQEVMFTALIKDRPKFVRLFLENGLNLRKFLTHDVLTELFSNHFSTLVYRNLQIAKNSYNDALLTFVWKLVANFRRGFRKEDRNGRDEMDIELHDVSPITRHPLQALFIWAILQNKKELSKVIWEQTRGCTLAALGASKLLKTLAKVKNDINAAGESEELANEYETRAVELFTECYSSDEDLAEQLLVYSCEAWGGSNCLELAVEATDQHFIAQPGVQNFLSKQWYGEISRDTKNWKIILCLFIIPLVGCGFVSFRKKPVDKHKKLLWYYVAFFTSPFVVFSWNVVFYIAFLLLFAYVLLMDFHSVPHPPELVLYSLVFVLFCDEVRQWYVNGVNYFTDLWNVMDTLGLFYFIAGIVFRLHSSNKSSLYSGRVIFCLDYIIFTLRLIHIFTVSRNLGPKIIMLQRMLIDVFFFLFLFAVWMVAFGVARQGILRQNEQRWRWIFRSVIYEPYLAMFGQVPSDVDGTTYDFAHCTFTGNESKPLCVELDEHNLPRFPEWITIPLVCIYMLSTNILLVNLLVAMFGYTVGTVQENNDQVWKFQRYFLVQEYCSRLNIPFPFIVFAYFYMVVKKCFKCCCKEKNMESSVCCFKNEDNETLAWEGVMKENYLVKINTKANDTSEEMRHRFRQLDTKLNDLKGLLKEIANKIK
Procedure: Using previously described testing methodologies, binding/functional tests were conducted on a commercial basis at Eurofins Laboratories (Poitiers, France) and Eurofins Panlabs Discovery Services Taiwan, Ltd. (New Taipei City, Taiwan); see Table S9 for more information.
Table S9. Radioligand binding and functional assays. […]
TRPM8 (h) (antagonist effect) […]
Assays were performed commercially in Eurofins Laboratories (Poitiers, France) or Eurofins Panlabs Discovery Services
Taiwan, Ltd. (New Taipei City, Taiwan).

[3] = test system: formalin-induced pain, mice; test: formalin test; format: in vivo, mouse; details: 100 mg/kg i.p.

Q: Which results are given for `CC(=O)N[C@@H](C(=O)N1CCN(c2cccc(C(F)(F)F)c2)CC1)c1ccccc1` [(R)-31, (R)-N-(2-Oxo-1-phenyl-2-(4-(3-(trifluoromethyl)phenyl)piperazin-1-yl)ethyl)acetamide]?
A: ED50 [1]: 53.9 mg/kg; melting point: 112.9 to 113.5 °C; ED50 [2]: 44.2 mg/kg; inhibition at 10 µM (TRPM8 (h)): 4.6%; nociceptive response, acute phase of the formalin test ([3]; 0–5 min after formalin): significantly attenuated the nociceptive response; nociceptive response, late phase of the formalin test ([3]; 15–30 min after formalin): significantly attenuated the nociceptive response
